{"source": "ChEMBL document CHEMBL5727551", "about": "“5-(n-[6,5]-fused bicyclic aryl tetrahydroisoquinolin-6-yl) pyridin-3-yl acetic acid derivatives as inhibitors of human immunodeficiency virus replication” (2020)", "experiment": "Inhibition of HIV Replication: A recombinant NL-RLuc proviral clone was constructed in which a section of the nef gene from NL4-3 was replaced with the Renilla Luciferase gene. This virus is fully infectious and can undergo multiple cycles of replication in cell culture. In addition, the luciferous reporter provides a simple and easy method for quantitating the extent of virus growth and consequently, the antiviral activity of test compounds. The plasmid pNLRLuc contains the proviral NL-Rluc DNA cloned into pUC 18 at the PvuII site. The NL-RLuc virus was prepared by transfection of 293T cells with the plasmid pNLRLuc. Transfections were performed using the LipofectAMINE PLUS kit from Invitrogen (Carlsbad, Calif.) according to the manufacturer and the virus generated was titered in MT-2 cells. For susceptibility analyses, the titrated virus was used to infect MT-2 cells in the presence of compound, and after 5 days of incubation, cells were processed and quantitated for virus growth by the amount of expressed luciferase. Assay media was RPMI 1640 supplemented with 10% heat inactivated fetal bovine serum (FBS), 100 units/ml penicillin G/100 units/ml streptomycin, 10 mM HEPES buffer pH 7.55 and 2 mM L-glutamine. The results from at least 2 experiments were used to calculate the EC50 values. Luciferase was quantitated using the Dual Luciferase kit from Promega (Madison, Wis.). […]", "format": "cell-based"}
{"smiles": "Cc1nc(C)c([C@H](OC(C)(C)C)C(=O)O)c(N2CCC(C)(C)CC2)c1-c1ccc2c(c1)CCN(c1ncnc3cc[nH]c13)C2", "values": [{"measurement": "EC50", "value": 20, "unit": "nM"}]}
